According to paper PMC5608758, “A brain-targeting lipidated peptide for neutralizing RNA-mediated toxicity in Polyglutamine Diseases” (Scientific Reports, 2017):
“Also recorded” adds a separate entry of the source. Residues, ends and D or L forms follow the SMILES beside them. *: point of attachment. Palmitoyl = CCCCCCCCCCCCCCCC(=O)*

Tests used:
[1] = tested on: primary rat cortical neurons; assay: LDH cytotoxicity in primary neurons; type: cell-based; conditions: 0.01 nM to 1 µM, 72 hr; P3V8 transfected with DeliverX; 3 independent experiments
Procedure: HEK293 cells were cultured at 37 °C with 5% CO2 in DMEM supplemented with 10% FBS and 1% penicillin-streptomycin. Primary rat cortical neurons were isolated and cultured as previously described. Transient transfection of HEK293 cells was performed using Lipofectamine 2000 (Life Technologies). P3V8 were delivered to HEK293 cells using the DeliverX (DX) Peptide Transfection Kit (Affymetrix) 4 hr after DNA transfection. At least two batches of independently synthesized peptides were used in the experiments. […]
cortical neurons. A density of […] of primary rat cortical neurons were seeded on culture […]
and 1000 nM of P3V8 peptide (transfected with DeliverX). The lactate dehydrogenase (LDH) cytotoxicity activity was measured 72 hr post-treatment. Fold change of LDH activity was normalized to untreated cells. Data are expressed as mean ± S.E.M. for 3 independent experiments. NS indicates no significance.
(1 picture or pasted object on this page, not shown here)
The LDH cytotoxicity activity was measured 72 hr post-treatment. Fold change of LDH activity was normalized to untreated cells. Data are expressed as mean ± S.E.M. for 3 independent experiments. NS indicates no significance.

DsRed CAG0 Drosophila = assay: Pseudopupil assay in control flies (toxicity); type: in vivo; conditions: P3V8 at up to 50 µM
Procedure: Flies were raised at 21.5 °C on cornmeal medium supplemented with dry yeast. Fly lines bearing UAS-DsRed CAG0 and UAS-DsRed CAG100 were kind gifts of Professor Nancy Bonini (University of Pennsylvania, USA). The gmr-GAL4 fly line was obtained from Bloomington Drosophila Stock Center. […] Pseudopupil assay was performed on 12 day-old adult flies as mentioned previously. Images were captured by SPOT Insight CCD camera controlled by the SPOT Advanced software (Diagnostic instruments Inc.). Image processing was performed using the Adobe Photoshop CS software (Adobe). Each experiment was repeated at least 3 times (n = 10 fly heads), and consistent results were obtained. For viability test of wild-type flies from egg to adult stage, eggs born within 5 hr were collected and cultured in fly food containing 10 or 50 μM of respective peptides at 21.5°C. Viability from egg-to-adult was calculated as the number of adult flies collected divided by the number of eggs examined. Each experiment was repeated for three times (at least 130 eggs were examined in each group). Two batches of independently synthesized peptides were used in the experiments.

[2] = tested on: pre-45s rRNA in EGFP CAG78 RNA-expressing HEK293 cells; assay: Real-time PCR of pre-45s rRNA level in cells; type: cell-based; conditions: peptide transfected with DeliverX
Procedure: HEK293 cells were cultured at 37 °C with 5% CO2 in DMEM supplemented with 10% FBS and 1% penicillin-streptomycin. Primary rat cortical neurons were isolated and cultured as previously described. Transient transfection of HEK293 cells was performed using Lipofectamine 2000 (Life Technologies). P3V8 were delivered to HEK293 cells using the DeliverX (DX) Peptide Transfection Kit (Affymetrix) 4 hr after DNA transfection. At least two batches of independently synthesized peptides were used in the experiments.
RNA was extracted from cells or ten 12 day-old adult fly heads by Trizol reagent (Life Technologies), and 1 μg of purified RNA was then used for reverse-transcription using the ImPromII™ Reverse Transcription System (Promega). Random hexamer (Roche) was used as primers in reverse transcription. Taqman gene expression assays were performed on an ABI 7500 Real-time PCR system and data were analyzed as previously described. The following probes were used: pre-45s rRNA (Assay ID: AILJIZM), pre-rRNA (Assay ID: AIMSG5U), Drosophila GAPDH (Assay ID: Dm01841186) and human actin (Assay ID: Hs99999903_m1). Each experiment was repeated at least 3 times.

MJD CAG27 RNA = assay: Isothermal titration calorimetry binding assay, unexpanded CAG RNA; conditions: ITC
Procedure: (§1) Experiments were carried out using a MicroCal iTC200 isothermal titration calorimeter (GE Healthcare) at 25 °C. Data were analyzed using the Origin® scientific plotting software version 7 (Microcal Software Inc.). All RNAs and peptides were dissolved in binding buffer (20 mM MOPS, pH 7.0; 300 mM NaCl) and 0.7 mM of peptide was titrated into 0.5 µM of RNA for each experiment. The concentration of RNA was estimated with appropriate extinction coefficients at 260 nm on a Nanodrop 2000 (Thermo Scientific). A reference power of 8 μcal/s was used with an initial 0.5 µl of injection of peptide followed by 2 µl for all subsequent titrations points with a 60 sec initial equilibrium delay and 150 sec pause between injections. The samples were stirred at a speed of 1000 rpm throughout the experiment. The thermal titration data were fitted to the ‘one binding site model’ to determine the dissociation constant (KD). Each experiment was repeated at least 3 times with consistent results obtained.

MJD CAA/G78 RNA = assay: Isothermal titration calorimetry binding assay, expanded CAA/G RNA; conditions: ITC; 0.7 mM P3V8 titrated into 0.5 µM MJD CAA/G78 RNA; one binding site model; mean ± S.E.M., at least 3 independent experiments
Procedure: as §1

expanded MJD CAG78 RNA = assay: Isothermal titration calorimetry binding assay, expanded CAG RNA
Procedure: as §1

| Molecule | cytotoxicity (LDH release) [1] | toxic effect on control flies (DsRed CAG0 Drosophila) | restoration of pre-45s rRNA level [2] | Kd (MJD CAG27 RNA; 0.7 mM P3V8 titrated into 0.5 µM MJD CAG27 RNA, one binding site model, mean ± S.E.M., at least 3 independent experiments) | lower affinity for unexpanded RNA or expanded CAA/G RNA than for expanded CAG RNA (MJD CAG27 RNA; MJD CAG27 RNA or MJD CAA/G78 RNA versus MJD CAG78 RNA) | Kd (MJD CAA/G78 RNA) | improvement of binding affinity for expanded CAG RNA over P3 (expanded MJD CAG78 RNA; ITC KD relative to P3) | Kd (expanded MJD CAG78 RNA; ITC, 25 °C, 20 mM MOPS pH 7.0, 300 mM NaCl, 0.7 mM peptide titrated into 0.5 µM MJD CAG78 RNA, one binding site model, mean ± S.E.M., at least 3 independent experiments) |
| --- | --- | --- | --- | --- | --- | --- | --- | --- |
| CCCCCCCCCCCCCCCC(=O)N[C@@H](CC(=O)O)C(=O)NCC(=O)N[C@@H](CCCCN)C(=O)N[C@@H](CO)C(=O)N[C@@H](CCCCN)C(=O)NCC(=O)N[C@H](C(=O)N[C@@H](C)C(=O)N[C@@H](Cc1ccc(O)cc1)C(=O)N[C@H](C(=O)N[C@@H](CCC(=O)O)C(=O)N[C@@H](Cc1ccccc1)C(=O)N[C@@H](CCCCN)C(N)=O)[C@@H](C)CC)[C@@H](C)CC [L1P3V8] (Palmitoyl-DGKSKGIAYIEFK-NH2) | no cytotoxicity; also recorded: no cytotoxic effects | no cytotoxic effects |  |  |  |  |  |  |
| Ac-DGKSKGIAYIEFK-NH2 [P3V8] | no cytotoxicity; also recorded: no significant cell death |  | dose-dependent restoration | 2190 ± 270 nM | 6–9 fold | 2940 ± 960 nM | more than 20 fold | 330 ± 40 nM |
